Earlier results in patent publication US11017689B2, “Very low nicotine cigarette blended with very low THC cannabis” (priority 2018, dated 2021).

Key:
[1] = tested on: nicotine self-administration; conditions: rats
[2] = tested on: nicotinic acetylcholine receptors (nAChRs)
[3] = administered orally to rats
[4] = nicotine in tobacco smoke, inhaled

Row | Compound | dose-effect function on nicotine self-administration [1] | reduction of nicotine infusions per session ([1]; 2.0 mg/kg of anabasine) | increase in nicotine self-administration ([1]; pretreatment with 0.02 mg/kg anabasine) | affinity for nicotinic acetylcholine receptors (nAChRs) [2] | reduction of nicotine self-administration ([1]; pretreatment with 2.0 mg/kg anatabine) | elimination half-life relative to that of nicotine [3] | time from inhaling the smoke until nicotine reaches the brain [4]
1 | c1cncc([C@@H]2CCCCN2)c1 [anabasine] | biphasic | over 50% | 25% | affinity |  |  | 
2 | C1=CCC(c2cccnc2)NC1 (centres unmarked) [anatabine] |  |  |  | affinity | nearly half | 2 to 2.5 fold | 
3 | CN1CCCC1c1cccnc1 (centres unmarked) [nicotine] |  |  |  |  |  |  | approximately ten
